The results in this text go back to ChEMBL document CHEMBL2202997, “Ex vivo study of the vasorelaxant activity induced by phenanthrene derivatives isolated from Maxillaria densa” (J Nat Prod, 2012).

pEC50: −log10 of the molar value. The source made the active and inactive calls. The calls are words filed in the database; no cut-off is given here.

The test system of assay [1] is Aorta. In words: Vasorelaxant activity in Wistar rat aorta with endothelium assessed as inhibition of norepinephrine-induced contraction. It is filed as functional, tissue-based.
The subject of assay [2] is Aorta. As to the kind of experiment: Vasorelaxant activity in Wistar rat aorta with endothelium assessed as inhibition of norepinephrine-induced contraction relative to control. In kind it is functional.
Assay [3] deals with Aorta. In words: Vasorelaxant activity in Wistar rat aorta without endothelium assessed as inhibition of norepinephrine-induced contraction. It is filed as functional, tissue-based.
The test system of assay [4] is Aorta. In words: Vasorelaxant activity in Wistar rat aorta without endothelium assessed as inhibition of norepinephrine-induced contraction relative to control. It is filed as functional.
Assay [5] concerns Aorta. As to the kind of experiment: Vasorelaxant activity in Wistar rat endothelium-denuded aorta assessed as inhibition of FPL-64176-induced contraction at 11 to 63 uM. In kind it is functional, tissue-based.
For assay [6], the system named is Aorta. In words: Vasorelaxant activity in Wistar rat endothelium-denude aorta assessed as inhibition of norepinephrine-induced contraction in presence of soluble guanylyl cyclase inhibitor ODQ. In kind it is functional, tissue-based.
The subject of assay [7] is Aorta. As to the kind of experiment: Vasorelaxant activity in Wistar rat endothelium-denuded aorta assessed as inhibition of CaCl2-induced contraction. In kind it is functional, tissue-based.
Assay [8] concerns Aorta. As to the kind of experiment: Vasorelaxant activity in Wistar rat aorta without endothelium assessed as inhibition of extracellular Ca2+-induced contractions activated by potassium chloride-induced contraction. It is filed as functional, tissue-based.
In assay [9] the test system is Aorta. As to the kind of experiment: Induction of relaxation in Wistar rat endothelium-denuded aorta in presence of potassium channel blocker glibenclamide. It is filed as functional, tissue-based.
In assay [10] the test system is Aorta. As to the kind of experiment: Vasorelaxant activity in Wistar rat aorta without endothelium assessed as inhibition of extracellular Ca2+-induced contractions activated by potassium chloride-induced contraction relative to control. It is filed as functional.
In assay [11] the test system is Aorta. In words: Induction of relaxation in Wistar rat endothelium-denuded aorta in presence of potassium channel blocker TEA. In kind it is functional, tissue-based.

With `C[N+](C)(C)CCOC(N)=O.[Cl-]` [CARBACHOL], the pEC50 in the assay on Aorta [1] was 6.39. For the same compound, in the assay on Aorta [2], the Efficacy is recorded as 74.06%.
In the case of `COc1c(O)cc2c(c1OC)-c1ccc(O)cc1CC2` [ERIANTHRIDIN], the pEC50 was 3.85 with Aorta [1] and 3.78 with Aorta [3]. The inhibition result in the assay on Aorta [1] and with Aorta [3] was “Dose-dependent effect” in each case. Moreover, the Efficacy with Aorta [2] amounted to 85.47%; in the assay with Aorta [4], 82.4%.
For the compound `COc1c(O)cc2cc(OC)c3cccc(O)c3c2c1OC` [FIMBRIOL A], the negative-log EC50 (pEC50) was 3.63 with Aorta [1] and 3.54 with Aorta [3]. Also, the inhibition result in the assay on Aorta [1] and in the assay on Aorta [3] was “Dose-dependent effect” throughout. The figures for the Efficacy with Aorta [2] and with Aorta [4] were 83.05% and 73.86%, respectively.
With `COc1c(O)cc2cc(OC)c3cc(O)ccc3c2c1OC` [GYMNOPUSIN], the pEC50 was 4.20 in the assay with Aorta [1], 4.15 in the assay with Aorta [3] and 3.92 with Aorta [8]. Moreover, the inhibition entry in the assay with Aorta [1], in the assay with Aorta [5] and in the assay with Aorta [3] was “Dose-dependent effect” each time. Also, the values for the Efficacy in the assay on Aorta [2], with Aorta [4] and in the assay on Aorta [10] were 94%, 98.18% and 71.3%, respectively. Moreover, the inhibition result in the assay on Aorta [6] and with Aorta [7] was “Active” throughout. For the same compound, the outcome with Aorta [9] and with Aorta [11] was inactive.
Consider `COC(=O)C1=C(C)NC(C)=C(C(=O)OC)C1c1ccccc1[N+](=O)[O-]` [NIFEDIPINE], for which, in the assay with Aorta [3], the negative-log EC50 (pEC50) was 5.37. The Efficacy in the assay with Aorta [4] is on record as 97%.

For orientation: pEC50 means the EC50 on a negative log10 scale, so that one unit is a factor of ten.
